Measurements as given in patent US11660265B2, “Method of rapidly achieving therapeutic concentrations of triptans for treatment of migraines and cluster headaches” (ZP Opco, Inc., priority 2018, dated 2023).
In brackets after ≈: the same amount, converted by molar mass. Where two headings read alike, the source gives them in different places.

Legend:
clinical = experiment: clinical
Description: The final treatment administered was 3.8 mg on a 10 cm^2 patch using an applicator with 0.52 Joule of application energy in the intracutaneous microneedle system described herein. The products tested were:
This was a single-center, open-label, randomized five-way crossover study (Part 1) followed by a sequential study of two additional treatments (Parts 2 and 3). After obtaining informed consent and establishing eligibility, each subject received each of the seven study treatments once, followed by in-clinic monitoring and extensive blood sample collection for pharmacokinetic analysis. […] Plasma samples from the initial dosing days were sent to the analytical laboratory for analysis, and tolerability for each of the dose levels was summarized. […] During Part 3, subjects received a single 3.8 mg patch (applied with a 0.52 J applicator) and also completed identical procedures to the previous dosing days. After completion of the seven dosing days, subjects were assessed one final time and dismissed from the study.
Twenty subjects were enrolled in the study, 10 males and 10 females. The subjects mean age was 29 years±3.5 years with a mean BMI of 24.4±3.5.
PK parameters were summarized by treatment group using descriptive statistics (arithmetic means, standard deviations, coefficients of variation, sample size, minimum, maximum, and median).

migraine = conditions: cited from earlier work; for Pain freedom at 2 hours / Pain relief at 2 hours: lowest oral dose
[1] = cited from earlier work; for Bioavailability: oral tablet
[2] = Solubility of zolmitriptan in various acids; format: physicochemical; conditions: 5 °C, thermodynamic from solid, 2-8° C.
Excerpt: The suspension was then centrifuged.

in vivo = experiment: in vivo; parameters: species or system swine; conditions: Yorkshire, pig, iv
Description: The M207 patch was tested in swine. Intravenously administered zolmitriptan was used as a control. The inner thigh of the swine was used as the site of administration.
The low limit of quantitation (LLOQ) and high-limit of quantitation (HLOQ) were 0.1 and 1000 ng/mL, respectively. A four minute method utilizing high performance liquid chromatography-electrospray ionization-tandem mass spectrometry (HPLC-ESI-MS/MS) was developed for quantitation of zolmitriptan and its two major metabolites in HGP plasma. The instrumentation consist of Agilent® 1200 pumps, CTC PAL® Autosampler with cooling stack, AB Sciex® TurboV® ESI source, and API 4000® mass spectrometer.
All plasma samples and standards were first protein precipitated using 100% methanol and then diluted with 30% solution of acetonitrile at 1:2 ratio (Plasma: 30% ACN), 20 μL of this solution was injected into autosample. The autosample was equipped with a 100 μL syringe and a 100 μL loop. […]
The HPLC method used was a reversed phase gradient method (0.0 min, 10% B; 0.5 min, 10% B; 1.0 min, 40% B; 1.7 min, 40% B; 2.1 min, 10% B; 4.0 min, 10% B). […] During the mass spectrometer acquisition, eleven MRM transitions were monitored. […] The peak areas under each corresponding MRM transitions were summed and compared to that of spiked standard plasma samples to calculated concentration for each sample. […]

[3] = target: T1, recombinant human 5-HT1B receptors (Homo sapiens, UniProt P28222); experiment: Ligand-receptor binding kinetics, 3H-5-carboxamidotryptamine competition, CHO-K1 membranes
T1 construct: expressed in transfected cells; host or cells: CHO-K1
Description: (§1) Membrane preparations were derived from transfected CHO-K1 cells expressing recombinant human 5-HT1B and 5-HT1D receptors. […] After incubating for various lengths of time, membranes were washed by filtration and residual ^3H counts were determined on a microplate scintillation counter. On-rate constant (kon), off-rate constant (koff), and equilibrium dissociation constant (KD) were determined using nonlinear regression on Prism 4 (GraphPad), and Xlfit (IDBM) software. The following formulae were used in calculating additional parameters using previously derived^2 pharmacokinetic data in healthy human volunteers. Residence time for each ligand on 5-HT1B and 5-HT1D receptors=1/koff.

[4] = target: T2, recombinant human 5-HT1D receptors (Homo sapiens, UniProt P28221); experiment: as above
T2 construct: expressed in transfected cells; host or cells: CHO-K1
Description: as §1

5HT1B/1D = conditions: cited from earlier work
[5] = both, human, in vivo, AUC0-2 hr (SD)
[6] = both, human, in vivo, AUC0-last (SD)
[7] = both, human, in vivo, AUC2 hrs, Mean
[8] = both, human, in vivo, AUCinf, Mean
[9] = both, human, in vivo, Cmax (SD)
[10] = both, human, in vivo, Cmax, Mean
[11] = both, human, in vivo, Tmax Med (Range)
[12] = both, human, in vivo, t1/2, Mean
[13] = plasma N-desmethyl zolmitriptan metabolite
[14] = plasma N-desmethyl zolmitriptan metabolite, in ng·h/mL

T1 sequence (P28222 whole entry): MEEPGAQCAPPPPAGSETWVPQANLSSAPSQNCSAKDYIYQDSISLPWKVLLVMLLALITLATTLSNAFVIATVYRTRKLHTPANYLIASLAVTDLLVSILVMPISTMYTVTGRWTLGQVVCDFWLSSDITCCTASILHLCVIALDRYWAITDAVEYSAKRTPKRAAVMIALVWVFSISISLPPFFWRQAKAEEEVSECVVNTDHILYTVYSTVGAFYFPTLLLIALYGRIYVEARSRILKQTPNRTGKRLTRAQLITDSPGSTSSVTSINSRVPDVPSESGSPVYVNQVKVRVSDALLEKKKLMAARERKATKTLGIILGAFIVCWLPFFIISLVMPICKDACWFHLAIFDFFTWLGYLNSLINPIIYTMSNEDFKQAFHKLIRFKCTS
T2 sequence (P28221 whole entry): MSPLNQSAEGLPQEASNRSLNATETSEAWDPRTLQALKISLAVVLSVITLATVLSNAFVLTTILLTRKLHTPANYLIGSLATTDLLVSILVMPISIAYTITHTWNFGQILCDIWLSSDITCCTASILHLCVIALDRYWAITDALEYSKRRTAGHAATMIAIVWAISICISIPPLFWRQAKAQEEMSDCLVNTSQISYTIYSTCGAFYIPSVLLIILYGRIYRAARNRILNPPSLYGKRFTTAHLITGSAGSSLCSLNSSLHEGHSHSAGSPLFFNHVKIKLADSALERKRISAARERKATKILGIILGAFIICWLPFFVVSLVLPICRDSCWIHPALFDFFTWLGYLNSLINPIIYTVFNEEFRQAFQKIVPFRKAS

In the case of CNS(=O)(=O)Cc1ccc2[nH]cc(CCN(C)C)c2c1 [Sumatriptan, sumatriptan], the AUC(0-t) (clinical; [5]) is reported as 70.9 ng·h/mL, the AUC(0-t) (clinical; [6]) is reported as 101 ng·h/mL and the AUC(0-t) (clinical; [7]) is reported as 70.9 ng·h/mL. The AUC(0-inf) (clinical; [8]) was 105 ng·h/mL, the Cmax (clinical; [9]) was 88.8 ng/mL and the Cmax (clinical; [10]) was 88.8 ng/mL. For the same compound, the Tmax (clinical; [11]) was 0.167 h, the half-life (clinical; both, human, in vivo, sc, t1/2 Mean (SD)) was 1.14 h and the Tmax (clinical; both, human, in vivo, sc, tmax Median (Range)) was 0.167 h. For the same compound, the half-life (clinical; [12]) was 1.14 h, the 24-hour recurrence rate (migraine; among those who achieved headache resolution, 6 mg, different trial) was 38% and the Tmax ([1]; conventional oral tablet) was “about 2 hours”. The Bioavailability [1] was “about 15%”.

CN(C)CCc1c[nH]c2ccc(C[C@H]3COC(=O)N3)cc12 [Zolmitriptan, zolmitriptan] showed a solubility ([2]; aqueous buffer, 0.1 M citric acid) of 88.6 mg/mL (≈ 308 mM), a solubility ([2]; aqueous buffer, 0.1 M maleic acid) of 50.5 mg/mL (≈ 176 mM) and a solubility ([2]; aqueous buffer, 0.1 M succinic acid) of 59.1 mg/mL (≈ 206 mM). For the same compound, the solubility ([2]; aqueous buffer, 0.1 M tartaric acid) was 63.3 mg/mL (≈ 220 mM), the solubility ([2]; simulated gastric fluid, 0.1 M HCl) was 33.3 mg/mL (≈ 116 mM) and the AUC(0-t) (clinical; both, human, in vivo, 2.5 mg, AUC2 hrs Mean (SD)) was 4.72 ng·h/mL. For the same compound, the AUC(0-inf) (clinical; both, human, in vivo, 2.5 mg, AUCinf Mean (SD)) was 27.2 ng·h/mL, the Cmax (clinical; both, human, in vivo, 2.5 mg, Cmax Mean (SD)) was 3.77 ng/mL and the half-life (clinical; both, human, in vivo, 2.5 mg, t1/2 Mean (SD)) was 3.27 h. The Tmax (clinical; both, human, in vivo, 2.5 mg, tmax Median (Range)) was 1 h, the half-life (clinical; both, human, in vivo, t1/2 Mean (SD)) was 1.53 h and the Tmax (clinical; both, human, in vivo, tmax Median (Range)) was 0.3 h. It also gave a Tmax (in vivo) of 1 min, a Kd [3] of 1.47 nM and a koff ([3]; read-out: koff (converted)) of 0.00127 s⁻¹. It also gave a kon ([3]; read-out: kon (converted)) of 883000 M⁻¹ s⁻¹, a Kd [4] of 0.34 nM and a koff ([4]; read-out: koff (converted)) of 0.001 s⁻¹. For the same compound, the kon ([4]; read-out: kon (converted)) was 2.9e+06 M⁻¹ s⁻¹, the “Pain freedom at 2 hours” value (migraine) was 29% and the “Pain relief at 2 hours” value (migraine) was 62%. For the same compound, the Tmax ([1]; nasal administration) was “about 1.5 hours”.

In the case of CN(C)CCc1c[nH]c2ccc(C[C@H]3COC(=O)N3)cc12 [nasal treatment of zolmitriptan, zolmitriptan], the “Patients pain free at 1 hour” value (migraine; nasal treatment) is given as “about 10%”.

In the case of CNS(=O)(=O)CCc1ccc2[nH]cc(C3CCN(C)CC3)c2c1 [naratriptan], the “Pain freedom at 2 hours” value (migraine) is listed as 18% and the “Pain relief at 2 hours” value (migraine) is listed as 49%.

In the case of “zolmitriptan [Zolmitriptan 2.5 mg Oral Tablet]”, the AUC2 hrs, Mean (clinical; [13]) is reported as 2.31 ng·h/mL, the AUC2 hrs, Median (clinical; [13]) is reported as 2.24 ng·h/mL and the Cmax, Mean (clinical; [13]) is reported as 2.08 ng/mL. For the same compound, the Cmax, Median (clinical; [13]) was 2.04 ng/mL, the “AUCinf, Mean” value (clinical; [14]) was 14.55 and the “AUCinf, Median” value (clinical; [14]) was 14.31. The “AUCt, Mean” value (clinical; [14]) was 13.71 and the “AUCt, Median” value (clinical; [14]) was 13.76.

For CN(C)CCc1c[nH]c2ccc(C[C@H]3COC(=O)N3)cc12 [orally disintegrating tablets, zolmitriptan], the Tmax ([1]; orally disintegrating tablets) is given as “about 3 hours”.

In the case of CN(C)CCc1c[nH]c2ccc(C[C@H]3COC(=O)N3)cc12 [Zolmitriptan 2.5 mg Oral Tablet, zolmitriptan], the AUC0-last / Dose (clinical; both, human, in vivo) is reported as 8.6 ng·h/mL/mg, the “Time to peak plasma concentration of the N-desmethyl metabolite” value (clinical; both, human, in vivo) is reported as 2.7 h and the “Tmax of N-desmethyl metabolite” value (clinical; both, human, in vivo) is reported as 2.71 h. The “Tmax, Mean” value (clinical; both, human, in vivo) was 1.79 h, the AUC(0-t) (clinical; [5]) was 4.7 ng·h/mL and the AUC(0-t) (clinical; both, human, in vivo, AUC0-last) was 22.2 ng·h/mL. The AUC(0-t) (clinical; [6]) was 22.2 ng·h/mL, the AUC(0-t) (clinical; [7]) was 4.72 ng·h/mL and the AUC(0-t) (clinical; both, human, in vivo, AUC2 hrs, Median) was 4.92 ng·h/mL. For the same compound, the AUC(0-inf) (clinical; [8]) was 27.2 ng·h/mL, the AUC(0-inf) (clinical; both, human, in vivo, AUCinf, Median) was 27.1 ng·h/mL and the AUC(0-t) (clinical; both, human, in vivo, AUCt, Mean) was 22.2 ng·h/mL. For the same compound, the AUC(0-t) (clinical; both, human, in vivo, AUCt, Median) was 22.6 ng·h/mL, the Cmax (clinical; both, human, in vivo, Cmax) was 3.8 ng/mL and the Cmax (clinical; [9]) was 3.8 ng/mL. For the same compound, the Cmax (clinical; [10]) was 3.77 ± 1.51 ng/mL, the Cmax (clinical; both, human, in vivo, Cmax, Median) was 3.7 ng/mL and the Tmax (clinical; both, human, in vivo, Tmax) was 1.8 ± 1.27 h. It also gave a Tmax (clinical; both, human, in vivo, Tmax (range), median) of 1 h, a Tmax (clinical; [11]) of 1 h and a Tmax (clinical; both, human, in vivo, Tmax, Mean) of 1.79 h. For the same compound, the Tmax (clinical; both, human, in vivo, Tmax, Median) was 1 h, the half-life (clinical; [12]) was 3.27 ± 0.8 h and the half-life (clinical; both, human, in vivo, t1/2, Median) was 3.28 h. For the same compound, the “Reduction of Cmax and AUC by administration with food” value ([1]; conventional release tablets) was 13-16% and the Bioavailability [1] was 41 and 48%.

Work on CNCCc1c[nH]c2ccc(C[C@H]3COC(=O)N3)cc12 [N-desmethyl zolmitriptan] yielded a Kd [3] of 0.92 nM, a koff [3] of 0.000833 s⁻¹ and a kon [3] of 900000 M⁻¹ s⁻¹. The Kd [4] was 0.43 nM, the koff [4] was 0.0009 s⁻¹ and the kon [4] was 2.1e+06 M⁻¹ s⁻¹. For the same compound, the “5HT1B/1D potency relative to the parent” value (5HT1B/1D) was 2 to 6 times.
